The target in assay [1] is T1, mGlyT-1b (Mus musculus, UniProt P28571).
T1 construct: host or cells: Flp-in-CHO
T1 sequence (P28571 1-651 isoform P28571-2): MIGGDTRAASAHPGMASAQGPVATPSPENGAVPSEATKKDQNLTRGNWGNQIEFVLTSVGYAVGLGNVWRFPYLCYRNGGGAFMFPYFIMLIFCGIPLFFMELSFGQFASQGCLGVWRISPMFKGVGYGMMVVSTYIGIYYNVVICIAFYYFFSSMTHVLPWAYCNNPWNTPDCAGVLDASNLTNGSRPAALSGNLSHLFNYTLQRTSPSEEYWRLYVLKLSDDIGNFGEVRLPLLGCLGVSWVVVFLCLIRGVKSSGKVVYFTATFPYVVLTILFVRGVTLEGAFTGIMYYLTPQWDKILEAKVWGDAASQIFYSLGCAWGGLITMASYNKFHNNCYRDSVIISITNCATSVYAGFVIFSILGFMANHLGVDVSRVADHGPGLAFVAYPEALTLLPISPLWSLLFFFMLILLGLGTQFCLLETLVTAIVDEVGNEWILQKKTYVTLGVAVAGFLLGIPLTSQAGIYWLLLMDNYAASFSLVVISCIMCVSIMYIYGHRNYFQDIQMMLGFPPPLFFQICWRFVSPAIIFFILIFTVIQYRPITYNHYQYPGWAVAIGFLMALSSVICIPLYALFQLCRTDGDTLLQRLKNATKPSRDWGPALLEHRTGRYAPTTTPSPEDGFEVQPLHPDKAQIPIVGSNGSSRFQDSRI
Put plainly: Glycine uptake inhibition assay (mGlyT-1b). Type of assay: cell-based. As to the method:
DMEM complete medium: Nutrient mixture F-12 (Gibco Life-technologies), fetal bovine serum (FBS) 5%, (Gibco life technologies), Penicillin/Streptomycinl % (Gibco life technologies), Hygromycin 0.6 mg/ml (Gibco life technologies), Glutamine 1 mM Gibco life technologies)
Uptake buffer (UB): 150 mM NaCl, 10 mM Hepes-Tris, pH 7.4, 1 mM CaCl2, 2.5 mM KCl, 2.5 mM MgSO4, 10 mM (+) D-glucose.
Flp-in™-CHO (Invitrogen Cat no. R758-07)cells stably transfected with mGlyT1b cDNA.
Glycine Uptake Inhibition Assay (mGlyT-1b)

The target of assay [2] is T2, GlyT-1 (Homo sapiens, UniProt P48067).
T2 sequence (P48067 1-706): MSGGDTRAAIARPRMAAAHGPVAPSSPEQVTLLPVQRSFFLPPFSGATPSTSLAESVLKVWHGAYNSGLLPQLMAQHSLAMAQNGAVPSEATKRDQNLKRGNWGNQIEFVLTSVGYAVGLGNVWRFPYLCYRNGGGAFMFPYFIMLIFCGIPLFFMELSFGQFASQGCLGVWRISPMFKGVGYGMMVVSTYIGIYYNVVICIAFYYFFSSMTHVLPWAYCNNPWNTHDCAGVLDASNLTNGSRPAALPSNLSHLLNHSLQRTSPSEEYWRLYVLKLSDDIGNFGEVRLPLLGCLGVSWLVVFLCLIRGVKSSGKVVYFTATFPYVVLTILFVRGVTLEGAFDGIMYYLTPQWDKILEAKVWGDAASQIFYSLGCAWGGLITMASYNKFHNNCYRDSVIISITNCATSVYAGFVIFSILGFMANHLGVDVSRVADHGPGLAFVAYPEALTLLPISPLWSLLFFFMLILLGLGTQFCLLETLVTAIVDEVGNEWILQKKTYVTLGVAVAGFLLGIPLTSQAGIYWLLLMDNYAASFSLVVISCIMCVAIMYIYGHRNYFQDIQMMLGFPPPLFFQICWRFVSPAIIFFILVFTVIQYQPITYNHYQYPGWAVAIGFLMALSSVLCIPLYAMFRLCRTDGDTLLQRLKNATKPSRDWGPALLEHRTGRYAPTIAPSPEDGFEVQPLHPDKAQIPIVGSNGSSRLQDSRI
In words: GlyT-1 inhibition, human. Type of assay: cell-based.
Procedure: On day 1 mammalian cells, (Flp-in™-CHO), transfected with mGlyT-1b cDNA , were plated at the density of 40,000 cells/well in complete F-12 medium, without hygromycin in 96-well culture plates. On day 2, the medium was aspirated and the cells were washed twice with uptake buffer (UB). The cells were then incubated for 20 min at 22° C. with either (i) no potential competitor, (ii) 10 mM non-radioactive glycine , (iii) a concentration of a potential inhibitor. […] A solution was then immediately added containing [^3H]-glycine 60 nM (11-16 Ci/mmol) and 25 µM non-radioactive glycine. The plates were incubated with gentle shaking and the reaction was stopped by aspiration of the mixture and washing (three times) with ice-cold US. The cells were lysed with scintillation liquid, shaken 3 hours and the radioactivity in the cells was coounted using a scintillation counter.

Values joined by “and” are separate entries in the source; they are usually repeats but may differ in a detail not shown here. Equal values may be shown once. Read-outs that look alike come from different tables or passages of the source.

3 compounds from patent US7265126B2, “Diaza-spiropiperidine derivatives” (Hoffmann-La Roche Inc., priority 2004, dated 2007) can be followed below.

On to `O=C1NCC(c2ccc(F)cc2)C12CCN(C1(c3ccsc3)CCCCC1)CC2` (racemic) [Example 38, rac-4-(4-Fluoro-phenyl)-8-(1-thiophen-3-yl-cyclohexyl)-2,8-diaza-spiro[4.5]decan-1-one], for which the IC50 was 99 nM and 213 nM in assay [1] (GlyT-1 Enant. Mouse/human); 99 nM in assay [1] (GlyT-1 Racemat Mouse/human).
For the compound `O=C1NCC(c2ccc(F)cc2)C12CCN(C1(c3ccc(F)cc3)CCCCCC1)CC2` (racemic) [Example 50, rac4-(4-Fluoro-phenyl)-8-[1-(4-fluoro-phenyl)-cycloheptyl]-2,8-diaza-spiro[4.5]decan-1-one], the IC50 was determined as 81 nM in assay [1]; 153 nM in assay [1] (second-listed enantiomer, mouse value (before the slash), read-out: GlyT-1 Enant. Mouse/human); 132 nM in assay [2] (racemate, human value (after the slash), read-out: GlyT-1 Racemat Mouse/human).
The compound `Cc1ccc(C2CNC(=O)C23CCN(C2(c4ccc(F)cc4)CCCCC2)CC3)cc1` (racemic) [Example 52, rac 8-[1-(4-Fluoro-phenyl)-cyclohexyl]4-p-tolyl-2,8-diaza-spiro [4.5]decan-1-one] yielded an IC50 in assay [2] (GlyT-1 Racemat Mouse/human) of 73 nM.
